One experiment concerns the target T1, ErbB2 (R896C) (Homo sapiens, UniProt P04626, R896C).
T1 construct: purchased Reaction Biology Corporation
Nature of the experiment: ErbB2 mutant inhibition assay (33P-ATP radiometric kinase assay, Reaction Biology). In kind it is biochemical. The following applies: ATP 10 μM, 20 min preincubation, 2 h reaction; read-out: Compound IC50 ErbB2 (R896C). The procedure: (§1) The reagents and materials used in the assay, as well as the testing procedure, were provided and carried out by Reaction Biology Corporation. The specific steps were as follows: • 1. […] Conditions for the enzyme reaction assay: The test compounds were incubated for 20 minutes, ATP concentration was set at 10 μM, and the total duration of the enzyme reaction was 2 hours. • 3. Experimental steps for the enzyme reaction
(§2) The enzyme reaction buffer was 20 mM HEPES at a pH of 7.5, 10 mM MgCl2, 2 mM MnCl2, 1 mM EGTA, 0.01% Brij35, 0.02 mg/mL BSA, 0.1 mM Na3VO4, 2 mM DTT, and 1% DMSO.
(§3) Kinase activity %=(Remaining kinase activity of test compound samples/Kinase activity of solvent control samples (DMSO))*100%
(§4) The IC50 of the compound was calculated by fitting the kinase activity % at different compound concentrations.

The target of a further experiment is T2, ErbB2 (D769Y) (Homo sapiens, UniProt P04626, D769Y).
T2 construct: purchased Reaction Biology Corporation
T2 sequence (P04626 23-1255 D769Y): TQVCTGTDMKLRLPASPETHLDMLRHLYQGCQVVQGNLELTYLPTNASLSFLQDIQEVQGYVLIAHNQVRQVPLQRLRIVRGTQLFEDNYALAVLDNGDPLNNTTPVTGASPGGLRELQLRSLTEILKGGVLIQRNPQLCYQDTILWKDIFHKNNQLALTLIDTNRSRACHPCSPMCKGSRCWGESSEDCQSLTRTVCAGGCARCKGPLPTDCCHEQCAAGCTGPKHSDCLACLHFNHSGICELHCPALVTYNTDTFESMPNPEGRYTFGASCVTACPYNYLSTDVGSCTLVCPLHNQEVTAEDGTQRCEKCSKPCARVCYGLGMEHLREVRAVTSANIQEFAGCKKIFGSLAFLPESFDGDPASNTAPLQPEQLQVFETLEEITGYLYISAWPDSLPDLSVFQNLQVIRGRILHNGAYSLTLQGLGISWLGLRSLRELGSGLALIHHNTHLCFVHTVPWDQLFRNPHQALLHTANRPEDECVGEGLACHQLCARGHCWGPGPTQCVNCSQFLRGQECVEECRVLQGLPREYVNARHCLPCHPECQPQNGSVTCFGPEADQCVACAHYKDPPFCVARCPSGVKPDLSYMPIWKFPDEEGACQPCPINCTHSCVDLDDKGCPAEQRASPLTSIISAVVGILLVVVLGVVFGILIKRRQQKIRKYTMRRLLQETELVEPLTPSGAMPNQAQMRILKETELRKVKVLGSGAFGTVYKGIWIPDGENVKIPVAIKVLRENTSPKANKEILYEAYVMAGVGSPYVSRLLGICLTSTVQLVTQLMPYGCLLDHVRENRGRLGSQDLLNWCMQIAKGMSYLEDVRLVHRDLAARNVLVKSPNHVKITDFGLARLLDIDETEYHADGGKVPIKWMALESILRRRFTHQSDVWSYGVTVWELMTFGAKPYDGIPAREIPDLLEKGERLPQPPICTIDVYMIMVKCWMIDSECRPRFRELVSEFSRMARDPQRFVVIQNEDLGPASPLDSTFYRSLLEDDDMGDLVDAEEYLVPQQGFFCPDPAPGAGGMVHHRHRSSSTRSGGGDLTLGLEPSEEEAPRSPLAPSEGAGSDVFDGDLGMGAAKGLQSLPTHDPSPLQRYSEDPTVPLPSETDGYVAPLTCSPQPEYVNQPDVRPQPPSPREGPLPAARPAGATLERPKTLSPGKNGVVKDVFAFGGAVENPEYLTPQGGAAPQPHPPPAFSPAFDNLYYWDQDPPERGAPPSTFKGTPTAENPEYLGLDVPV
The description is as above. In kind it is biochemical. The following applies: ATP 10 μM, 20 min preincubation, 2 h reaction; read-out: Compound IC50 ErbB2 (D769Y). The procedure: as §1, §2, §3, §4

The target in the next experiment is T3, ErbB2 (D769H) (Homo sapiens, UniProt P04626, D769H).
T3 construct: purchased Reaction Biology Corporation
T3 sequence (P04626 23-1255 D769H): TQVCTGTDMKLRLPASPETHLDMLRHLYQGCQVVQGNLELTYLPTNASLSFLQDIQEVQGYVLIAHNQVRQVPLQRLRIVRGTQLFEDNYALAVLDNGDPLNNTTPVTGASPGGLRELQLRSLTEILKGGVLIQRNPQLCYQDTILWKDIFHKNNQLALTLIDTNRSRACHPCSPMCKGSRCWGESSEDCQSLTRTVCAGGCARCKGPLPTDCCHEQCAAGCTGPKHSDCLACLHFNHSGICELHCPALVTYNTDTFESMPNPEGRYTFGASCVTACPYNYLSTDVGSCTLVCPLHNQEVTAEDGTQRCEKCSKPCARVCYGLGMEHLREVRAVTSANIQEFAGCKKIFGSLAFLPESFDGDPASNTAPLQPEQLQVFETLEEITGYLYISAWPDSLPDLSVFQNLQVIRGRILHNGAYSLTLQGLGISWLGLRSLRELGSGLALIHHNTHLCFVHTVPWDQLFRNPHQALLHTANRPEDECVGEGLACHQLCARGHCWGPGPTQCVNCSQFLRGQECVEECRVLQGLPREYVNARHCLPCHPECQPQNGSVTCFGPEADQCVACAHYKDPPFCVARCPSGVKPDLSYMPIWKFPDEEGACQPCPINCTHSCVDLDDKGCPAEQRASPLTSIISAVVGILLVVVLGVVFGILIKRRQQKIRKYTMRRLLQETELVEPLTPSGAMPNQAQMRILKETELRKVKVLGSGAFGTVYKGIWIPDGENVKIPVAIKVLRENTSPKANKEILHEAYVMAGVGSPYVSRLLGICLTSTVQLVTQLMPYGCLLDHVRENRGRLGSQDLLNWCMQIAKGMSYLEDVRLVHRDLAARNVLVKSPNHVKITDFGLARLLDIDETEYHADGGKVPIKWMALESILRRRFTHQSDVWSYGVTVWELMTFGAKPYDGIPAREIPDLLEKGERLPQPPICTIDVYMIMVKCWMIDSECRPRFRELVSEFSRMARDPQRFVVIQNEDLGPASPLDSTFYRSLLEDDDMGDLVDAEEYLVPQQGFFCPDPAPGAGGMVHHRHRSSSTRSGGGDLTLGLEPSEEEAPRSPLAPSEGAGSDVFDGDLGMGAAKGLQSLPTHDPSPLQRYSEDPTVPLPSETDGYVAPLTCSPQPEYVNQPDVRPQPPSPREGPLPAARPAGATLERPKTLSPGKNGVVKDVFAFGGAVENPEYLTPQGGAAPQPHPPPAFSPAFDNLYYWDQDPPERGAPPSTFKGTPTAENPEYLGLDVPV
The experiment is described as above. In kind it is biochemical. As to conditions: ATP 10 μM, 20 min preincubation, 2 h reaction; read-out: Compound IC50 ErbB2 (D769H). As for the experimental part: as §1, §2, §3, §4

For the next experiment, the target named is T4, ErbB2 (V777L) (Homo sapiens, UniProt P04626, V777L).
T4 construct: purchased Reaction Biology Corporation
T4 sequence (P04626 23-1255 V777L): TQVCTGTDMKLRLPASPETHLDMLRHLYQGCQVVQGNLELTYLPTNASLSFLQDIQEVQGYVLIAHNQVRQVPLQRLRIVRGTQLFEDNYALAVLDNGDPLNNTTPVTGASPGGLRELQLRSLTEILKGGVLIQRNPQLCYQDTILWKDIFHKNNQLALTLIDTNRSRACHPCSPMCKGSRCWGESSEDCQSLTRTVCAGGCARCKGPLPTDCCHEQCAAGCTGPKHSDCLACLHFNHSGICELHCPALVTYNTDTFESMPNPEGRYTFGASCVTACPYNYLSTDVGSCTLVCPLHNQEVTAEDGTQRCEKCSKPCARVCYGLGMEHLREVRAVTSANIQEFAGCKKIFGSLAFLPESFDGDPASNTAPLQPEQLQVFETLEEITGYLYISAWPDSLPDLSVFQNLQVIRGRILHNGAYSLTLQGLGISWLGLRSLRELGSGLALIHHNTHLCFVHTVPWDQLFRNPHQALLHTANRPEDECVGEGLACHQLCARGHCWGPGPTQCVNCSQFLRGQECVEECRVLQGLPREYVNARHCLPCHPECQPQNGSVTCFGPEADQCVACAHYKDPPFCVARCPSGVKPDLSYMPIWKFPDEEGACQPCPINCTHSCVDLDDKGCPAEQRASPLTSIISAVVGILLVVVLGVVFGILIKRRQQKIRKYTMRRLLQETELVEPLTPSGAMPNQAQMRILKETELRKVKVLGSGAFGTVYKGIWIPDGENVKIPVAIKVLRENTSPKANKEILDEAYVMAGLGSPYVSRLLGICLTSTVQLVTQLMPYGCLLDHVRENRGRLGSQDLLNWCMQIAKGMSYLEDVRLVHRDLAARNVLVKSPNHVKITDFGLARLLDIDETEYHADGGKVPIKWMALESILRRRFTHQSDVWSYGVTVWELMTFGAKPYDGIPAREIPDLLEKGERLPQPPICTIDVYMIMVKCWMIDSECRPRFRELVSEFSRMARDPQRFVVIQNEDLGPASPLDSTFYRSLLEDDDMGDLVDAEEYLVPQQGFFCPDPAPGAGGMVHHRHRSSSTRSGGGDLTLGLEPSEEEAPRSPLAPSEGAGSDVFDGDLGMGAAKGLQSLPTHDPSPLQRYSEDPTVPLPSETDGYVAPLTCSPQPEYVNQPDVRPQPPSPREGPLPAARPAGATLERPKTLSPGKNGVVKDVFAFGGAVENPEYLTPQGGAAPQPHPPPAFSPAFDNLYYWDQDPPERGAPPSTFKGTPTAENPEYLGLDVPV
The experiment is described as above. In kind it is biochemical. The following applies: ATP 10 μM, 20 min preincubation, 2 h reaction; read-out: Compound IC50 ErbB2 (V777L). The procedure: as §1, §2, §3, §4

The test system of experiment [1] is Ba/F3 ErbB2 A775_G776insYVMA mouse xenograft. Nature of the experiment: Efficacy testing in NPSG mouse xenograft model. In kind it is in vivo. As to conditions: 20 mg/kg; for TGI (%): administration for 13 days; for Efficacy (in words): continuous administration for 13 days. An excerpt:
NPSG male mice (Shanghai Jihui Laboratory Animal Care Co., Ltd., Certificate: No. 20170012006783) were subcutaneously inoculated on the right shoulder with Ba/F3 ErbB2 A775_G776insYVMA cells (cultured in vitro, 9×10^7 cells obtained). When the average tumor volume reached 130 mm^3, the mice were randomly divided into six groups based on tumor volume and body weight, with 10 mice in each group, and administration was started immediately. After the initiation of administration, the mice's body weight and tumor volume were measured twice a week, with the administration continued until Day 13 of the experiment. On Day 14 of the experiment, post-administration sample collection was conducted for each group.
Note: Data are presented as mean±standard error; control group is the group without any compound administered.

In experiment [2] the test system is Ba/F3 ErbB2 A775_G776insYVMA. Kind of experiment: ErbB2 mutant cell inhibition test (CTG, 72 hours). In kind it is cell-based. As to conditions: Mus musculus, BaF3; Ba/F3 ErbB2 A775_G776insYVMA, 72 hours, CTG. The procedure:
Cells were cultured, harvested during their logarithmic growth phase, and counted using a platelet counter. Cell viability was verified to be above 90% by trypan blue exclusion assay. After in vitro culture, 2×10^6 cells were obtained. […] A 10× drug solution was prepared, with a maximum concentration of 10 μM for the assay, and serially diluted 3-fold to nine concentrations. 10 μL of the drug solution was added to each well of the 96-well plate inoculated with the cells, and three duplicate wells were set for each drug concentration.

The subject of experiment [3] is NCI-H1781 ErbB2 exon20ins (G766 > VC). Kind of experiment: ErbB2 mutant cell inhibition test (CTG, 72 hours). In kind it is cell-based, Human. The following applies: Homo sapiens; NCI-H1781 ErbB2 exon20ins (G766 > VC), 72 hours, CTG. The procedure: Cells were cultured, harvested during their logarithmic growth phase, and counted using a platelet counter. Cell viability was verified to be above 90% by trypan blue exclusion assay. After in vitro culture, 2×10^6 cells were obtained. The cell suspension was aliquoted into a 96-well plate at 1×10^3 cells per well (90 μL/well), and incubated overnight under conditions of 37° C., 5% CO2, and 95% humidity. A 10× drug solution was prepared, with a maximum concentration of 10 μM for the assay, and serially diluted 3-fold to nine concentrations. 10 μL of the drug solution was added to each well of the 96-well plate inoculated with the cells, and three duplicate wells were set for each drug concentration. The 96-well plate, now containing the drug-treated cells, was cultured under conditions of 37° C., 5% CO2, and 95% humidity for an additional 72 hours before CTG analysis was performed.

Data on 20 molecules can be found in US20240197737A1, “APPLICATION OF COMPOUND IN PREPARATION OF INHIBITORY DRUG TARGETING ERBB2 MUTANT” (SHANGHAI PHARMACEUTICALS HOLDING CO., LTD., priority 2021, published 2024).

T1 sequence (P04626 23-1255 R896C): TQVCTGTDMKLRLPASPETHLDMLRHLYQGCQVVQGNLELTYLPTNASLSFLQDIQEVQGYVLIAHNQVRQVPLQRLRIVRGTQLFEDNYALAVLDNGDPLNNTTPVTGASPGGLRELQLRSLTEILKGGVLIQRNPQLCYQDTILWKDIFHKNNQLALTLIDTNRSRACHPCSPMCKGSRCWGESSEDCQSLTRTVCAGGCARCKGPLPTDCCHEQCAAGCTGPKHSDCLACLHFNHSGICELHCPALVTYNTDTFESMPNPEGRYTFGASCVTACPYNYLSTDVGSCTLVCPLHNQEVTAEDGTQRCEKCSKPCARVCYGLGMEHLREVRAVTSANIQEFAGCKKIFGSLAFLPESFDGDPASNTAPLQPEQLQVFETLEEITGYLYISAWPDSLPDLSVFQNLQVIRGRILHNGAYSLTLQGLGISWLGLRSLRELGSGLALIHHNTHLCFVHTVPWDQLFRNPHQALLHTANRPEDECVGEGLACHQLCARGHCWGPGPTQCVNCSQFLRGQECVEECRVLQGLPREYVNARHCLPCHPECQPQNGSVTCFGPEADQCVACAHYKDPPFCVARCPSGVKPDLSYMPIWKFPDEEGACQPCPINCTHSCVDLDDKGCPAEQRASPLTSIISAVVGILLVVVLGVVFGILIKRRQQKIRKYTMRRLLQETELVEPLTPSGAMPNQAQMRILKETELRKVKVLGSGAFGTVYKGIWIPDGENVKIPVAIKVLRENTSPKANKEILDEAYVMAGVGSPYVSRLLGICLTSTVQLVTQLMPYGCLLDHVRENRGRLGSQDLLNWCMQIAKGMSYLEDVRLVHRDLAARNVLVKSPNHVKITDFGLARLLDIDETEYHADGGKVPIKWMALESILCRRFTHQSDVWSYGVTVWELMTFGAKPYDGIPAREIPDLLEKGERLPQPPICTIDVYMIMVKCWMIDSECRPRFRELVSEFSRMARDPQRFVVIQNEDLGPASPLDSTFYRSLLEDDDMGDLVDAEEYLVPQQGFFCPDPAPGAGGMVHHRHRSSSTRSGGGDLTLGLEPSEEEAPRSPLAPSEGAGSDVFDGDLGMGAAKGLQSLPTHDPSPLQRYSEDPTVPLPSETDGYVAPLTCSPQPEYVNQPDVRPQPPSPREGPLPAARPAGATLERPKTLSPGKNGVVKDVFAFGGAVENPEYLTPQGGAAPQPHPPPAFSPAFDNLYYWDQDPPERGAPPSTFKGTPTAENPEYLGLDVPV

Take `Cc1cc(Nc2ncnc3ccc(NC(=O)/C=C/[C@H]4CCCN4C)cc23)ccc1Oc1ccc2nccn2n1`: the IC50 turned out to be 3.7 nM at ErbB2 (R896C), 38.9 nM on ErbB2 (D769Y), 9.11 nM at ErbB2 (D769H) and 14.9 nM on ErbB2 (V777L).

On to `COCCOc1cc2ncnc(Nc3ccc(Oc4cc5nncn5cn4)c(C)c3)c2cc1NC(=O)/C=C/[C@H]1CCCN1C`, for which the IC50 is 0.599 nM at ErbB2 (R896C), below 0.152 nM at ErbB2 (D769Y), 0.241 nM at ErbB2 (D769H) and below 0.152 nM on ErbB2 (V777L).

Consider `Cc1cc(Nc2ncnc3ccc(NC(=O)/C=C/[C@H]4CCCN4)cc23)ccc1Oc1cc2nncn2cn1`, for which the IC50 was determined as 1.13 nM on ErbB2 (R896C), 0.247 nM at ErbB2 (D769Y), 0.422 nM on ErbB2 (D769H) and 0.357 nM on ErbB2 (V777L).

Turning to `Cc1cc(Nc2ncnc3ccc(NC(=O)/C=C/C4COCCN4)cc23)ccc1Oc1cc2nncn2cn1` (stereo not shown), the IC50 at ErbB2 (R896C) is 0.973 nM; on ErbB2 (D769Y), 0.892 nM; at ErbB2 (D769H), 0.72 nM; at ErbB2 (V777L), 0.438 nM.

Take `CCOc1cc2ncnc(Nc3ccc(Oc4cc5nncn5cn4)c(C)c3)c2cc1NC(=O)/C=C/[C@H]1CCCN1C`: the 50% inhibitory concentration (IC50) on ErbB2 (R896C) is 1.87 nM; at ErbB2 (D769Y) it was 0.413 nM; on ErbB2 (D769H), 0.563 nM; at ErbB2 (V777L), 0.471 nM.

On to `Cc1cc(Nc2ncnc3ccc(NC(=O)/C=C/[C@H]4CCCN4C)cc23)ccc1Oc1ccn2cnnc2c1`, for which the IC50 on ErbB2 (R896C) was 0.191 nM; at ErbB2 (D769Y), 1.98 nM; on ErbB2 (D769H), 0.253 nM; at ErbB2 (V777L), 0.625 nM.

As to `Cc1cc(Nc2ncnc3ccc(NC(=O)/C=C/[C@H]4CCCN4C)cc23)ccc1Oc1cnc2ccnn2c1`, the concentration for half-maximal inhibition (IC50) at ErbB2 (R896C) is 0.336 nM; at ErbB2 (D769Y), 0.6 nM; at ErbB2 (D769H) it was below 0.152 nM; at ErbB2 (V777L) it was 0.279 nM.

Take `CCOc1cc2ncnc(Nc3ccc(Oc4ccn5ncnc5c4)c(C)c3)c2cc1NC(=O)/C=C/[C@H]1CCCN1C`: the half-inhibitory concentration (IC50) on ErbB2 (R896C), on ErbB2 (D769Y), at ErbB2 (D769H) and at ErbB2 (V777L) was below 0.152 nM in each case.

For the molecule `Cc1cc(Nc2ncnc3ccc(NC(=O)/C=C/[C@@H]4CCCN4C)cc23)ccc1Oc1cc2nncn2cn1`, the IC50 worked out at 0.788 nM at ErbB2 (R896C), 1.45 nM on ErbB2 (D769Y), 0.549 nM on ErbB2 (D769H) and 0.163 nM at ErbB2 (V777L).

As for `CCOc1cc2ncc(C#N)c(Nc3ccc(OCc4ccccn4)c(Cl)c3)c2cc1NC(=O)/C=C/CN(C)C` [Neratinib, reference compound], the Tumor volume in experiment [1] (Day 0, mean ± standard error) is 130.9 ± 4.75 mm^3; in experiment [1] (Day 4, mean ± standard error), 115.3 ± 9.81 mm^3; in experiment [1] (Day 7, mean ± standard error), 182 ± 10.87 mm^3; in experiment [1] (Day 11, mean ± standard error), 325.6 ± 9.86 mm^3; in experiment [1] (Day 13, mean ± standard error), 532.8 ± 15.26 mm^3. Besides, the “TGI (%)” value in experiment [1] is listed as 56%.

As for `CCOc1cc2ncc(C#N)c(Nc3ccc(Oc4cc5nncn5cn4)c(C)c3)c2cc1NC(=O)/C=C/[C@H]1CCCN1C`, the IC50 came out at 1.94 nM at ErbB2 (R896C), 2.06 nM on ErbB2 (D769Y), 1.34 nM at ErbB2 (D769H) and 0.889 nM on ErbB2 (V777L).

`Cc1cc(Nc2ncnc3ccc(NC(=O)/C=C/[C@H]4CCCN4C)cc23)ccc1Oc1ccn2ccnc2c1`: the half-maximal inhibitory concentration (IC50) was 0.379 nM at ErbB2 (R896C), 0.244 nM at ErbB2 (D769Y), below 0.152 nM at ErbB2 (D769H) and below 0.152 nM on ErbB2 (V777L).

Take `CN1CCC[C@@H]1/C=C/C(=O)Nc1ccc2ncnc(Nc3ccc(Oc4cc5nncn5cn4)c(Cl)c3)c2c1`: the IC50 at ErbB2 (R896C) was 0.187 nM; at ErbB2 (D769Y) it was below 0.152 nM; at ErbB2 (D769H) it was below 0.152 nM; on ErbB2 (V777L) it was below 0.152 nM.

As for `Cc1cc(Nc2ncnc3ccc(NC4=NC(C)(C)CO4)cc23)ccc1Oc1ccn2ncnc2c1` [Tucatinib, reference compound], the IC50 on ErbB2 (R896C) is 2.17 nM; at ErbB2 (D769Y) it was 8.89 nM; at ErbB2 (D769H) it was 2.58 nM; at ErbB2 (V777L), 1.08 nM.

For the molecule `Cc1cc(Nc2ncnc3ccc(NC(=O)/C=C/[C@H]4CCCN4)cc23)ccc1Oc1ccn2ncnc2c1`, the IC50 came out at 0.997 nM at ErbB2 (R896C), 0.246 nM at ErbB2 (D769Y), 0.325 nM at ErbB2 (D769H) and 0.186 nM on ErbB2 (V777L).

For `CS(=O)(=O)CCNCc1ccc(-c2ccc3ncnc(Nc4ccc(OCc5cccc(F)c5)c(Cl)c4)c3c2)o1` [Lapatinib, reference compound], the “Efficacy (in words)” value in experiment [1] is recorded as “moderate efficacy”. In experiment [2], this molecule returned an IC50 of 106 nM.

Turning to `CCOc1cc2ncnc(Nc3ccc(Oc4ccn5ncnc5c4)c(C)c3)c2cc1NC(=O)/C(F)=C/[C@@H]1CCCN1C`, the IC50 at ErbB2 (R896C) came out at 0.978 nM; at ErbB2 (D769Y) it was 2.44 nM; at ErbB2 (D769H), 0.998 nM; at ErbB2 (V777L), 0.235 nM.

With `Cc1cc(Nc2ncnc3ccc(NC(=O)/C=C/[C@H]4CCCN4C)cc23)ccc1Oc1cc2nccn2cn1`, the IC50 was found to be 0.741 nM at ErbB2 (R896C), 0.216 nM on ErbB2 (D769Y), 0.283 nM on ErbB2 (D769H) and 0.224 nM at ErbB2 (V777L).

Take `CCOc1cc2ncc(C#N)c(Nc3ccc(OCc4ccccn4)c(Cl)c3)c2cc1NC(=O)/C=C/[C@H]1CCCN1C` [Pyrotinib, reference compound]: the Tumor volume in experiment [1] (Day 0, mean ± standard error) was determined as 130.4 ± 5.4 mm^3; in experiment [1] (Day 4, mean ± standard error) it was 154.6 ± 4.87 mm^3; in experiment [1] (Day 7, mean ± standard error) it was 328.2 ± 13.39 mm^3; in experiment [1] (Day 11, mean ± standard error) it was 405.4 ± 19.38 mm^3; in experiment [1] (Day 13, mean ± standard error), 534.8 ± 38.29 mm^3. In addition, in experiment [1], the “TGI (%)” value stood at 55%. Moreover, the “Efficacy (in words)” value in experiment [1] is given as “moderate efficacy”. The IC50 in experiment [3] is 73.2 nM; on ErbB2 (R896C), 5.24 nM; at ErbB2 (D769Y), 91.7 nM; on ErbB2 (D769H) it was 15.6 nM; on ErbB2 (V777L), 10.5 nM.

For `Cc1cc(Nc2ncnc3ccc(NC(=O)/C(F)=C/[C@H]4CCCN4C)cc23)ccc1Oc1cc2nncn2cn1`, the IC50 at ErbB2 (R896C) amounted to 4.84 nM; on ErbB2 (D769Y), 0.811 nM; at ErbB2 (D769H) it was 1.69 nM; on ErbB2 (V777L), 2.41 nM.
